Laboratory results reported in US20240408170A1, “COMPOSITION FOR DECOMPOSITION OF TRYPSIN OR TMPRSS2” (Riken, priority 2021, published 2024).

What was measured:
[1] = biological target: T1, TMPRSS2 (Mus musculus, UniProt Q9JIQ8); assay: Western blot of faeces of GF mice inoculated with P. clara strain together with 2-mix; type: in vivo
T1 construct: from tissue; host or cells: faeces of gnotobiotic mice
Description: (§1) Mouse faecal samples were suspended and diluted 50-fold with phosphate buffered saline (PBS) to which a protease inhibitor cocktail (Roche) was added. Subsequently, the suspended sample was centrifuged at 15,000×g for 10 minutes at 4° C., and the supernatant was subjected to western blot. Mouse pancreatic tissue was rapidly frozen in liquid nitrogen. Proteins were extracted by TRIzol Reagent (Thermo Fisher Scientific K.K.), and the final protein concentration was adjusted to 4 μg/μL. For SDS-PAGE and blotting, Novex (registered trademark) NuPAGE (registered trademark) SDS-PAGE Gel system (Thermo Fisher Scientific K.K.) and iBlot™ 2 Dry Blotting System (Thermo Fisher Scientific K.K.) were used according to the manufacturer's instructions.
The antibodies used are as follows. […]

[2] = biological target: T2, recombinant mouse PRSS2 (Mus musculus, UniProt P07146); assay: Trypsin decomposition in vitro by bacteria (western blot); type: biochemical; details: bacteria or culture supernatant incubated with recombinant mouse trypsin
T2 construct: purchased Sino Biological, Inc. 50383-M08H
T2 sequence (P07146 24-246): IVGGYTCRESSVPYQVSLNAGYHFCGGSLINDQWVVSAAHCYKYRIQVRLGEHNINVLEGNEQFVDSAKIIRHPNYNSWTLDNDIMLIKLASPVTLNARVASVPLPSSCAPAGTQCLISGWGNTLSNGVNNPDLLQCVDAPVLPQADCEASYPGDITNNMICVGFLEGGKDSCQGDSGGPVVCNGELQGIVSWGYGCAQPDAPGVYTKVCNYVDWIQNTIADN
Description: as §1
The bacteria cultured overnight were incubated with recombinant mouse trypsin (final concentration: 1 μg/mL) for 1 hour or with human trypsin (final concentration: 20 μg/mL) for 4 hours. Recombinant trypsin isoforms used were as follows: recombinant mouse PRSS2 (50383-M08H, Sino Biological, Inc.), recombinant human PRSS1 (LS-G135640), recombinant human PRSS2 (LS-G20167), and recombinant human PRSS3 (His-tag) (NBP2-52220).
In some experiments, recombinant mouse PRSS2 was first treated with one of the following trypsin inhibitors for 30 minutes before incubation with a P. clara culture solution. AEBSF (Sigma-Aldrich, final concentration: 2 mM), Leupeptin (Sigma-Aldrich, final concentration: 100 μM), and TLCK (Abcam plc., final concentration: 100 μM).
In some experiments, P. clara was cultured overnight in the presence of Tunicamycin (Sigma-Aldrich, final concentration: 10 μg/mL), 2-Fluoro-L-fucose (Cayman Chemical Company, final concentration: 250 μM), or the corresponding DMSO control, before incubation with recombinant mouse PRSS2.
In the experiment of evaluating the effect of Ca^2+, P. clara was cultured in a low Ca^2+ mGAM medium supplemented with or without 1 mM of Ca^2+, before incubation with recombinant mouse PRSS2. In the experiment in which the supernatant of P. clara was used, P. clara cultured overnight was filtered through a sterilization filter unit formed using a PVDF film having a pore size of 0.22 μm.

[3] = test system: Citrobacter rodentium; assay: Vaccine administration experiment (peracetic acid-inactivated C. rodentium) followed by C. rodentium infection; type: in vivo, mouse; details: with 2-mix
Description: For a colony-forming unit (CFU) assay, cecal patches or cecal luminal contents were collected, and after homogenization with PBS, serially diluted homogenates were plated on LB agar plates. CFU was counted after overnight culture at 37° C. under aerobic conditions.
For the ex vivo evaluation of C. rodentium-specific IgA, the cecal contents were resuspended in a 5× (w/v) LB medium and centrifuged. The supernatant was filtered through a sterilization filter unit with a PVDF film having a pore size of 0.22 μm, and then mixed with an equal amount of a C. rodentium culture solution cultured overnight in vitro. This mixture was gently shaken at room temperature and incubated for 1 hour to examine the aggregation effect with a confocal microscope (Leica TCS SP8). Alternatively, after the incubation, the mixture was centrifuged and washed once with PBS. Thereafter, the bacterial cell pellet was dissolved in a 1% SDS solution (diluted with a 50 mM Tris-HCl buffer solution to which 5 mM EDTA was added). The lysate was stained by western blot with a goat anti-mouse IgA a chain antibody (HRP) (ab97235) to evaluate the relative amount of C. rodentium-binding (C. rodentium-specific) IgA in the faecal contents.
For a vaccine administration experiment, 200 μL of 2-mix (B. uniformis and P. merdae)+P. clara (WT), or 2-mix+P. clara (Δ00502) was preliminarily administered to GF mice. After 4 days, C. rodentium (10^10 cells/mouse) inactivated with peracetic acid was orally administered to the mice once a week for 3 weeks. After 3 weeks of immunization, the mice were infected with C. rodentium (150 μL/mouse) cultured overnight by oral administration, and euthanized on day 14.
The C. rodentium inactivated by peracetic acid was produced as follows. C. rodentium cultured overnight was recovered by centrifugation (16,000×g, 10 minutes) and resuspended in sterilized PBS at a density of 10^10 cells per 1 mL. Peracetic acid (240990, Sigma-Aldrich) was added such that a final concentration was 0.4%, and incubation was performed at room temperature for 1 hour. […]

T1 sequence (Q9JIQ8 254-490 limits assumed): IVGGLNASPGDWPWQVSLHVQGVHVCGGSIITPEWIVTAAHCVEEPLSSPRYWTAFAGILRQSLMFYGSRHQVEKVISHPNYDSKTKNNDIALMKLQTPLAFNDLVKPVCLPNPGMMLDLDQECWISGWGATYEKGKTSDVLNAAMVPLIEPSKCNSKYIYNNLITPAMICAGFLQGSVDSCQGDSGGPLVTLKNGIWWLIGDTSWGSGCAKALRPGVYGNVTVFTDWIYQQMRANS

## Paraprevotella clara [JCM 14859]
[1]
  amount of TMPRSS2 in the faeces: reduced
[2]
  decomposition of rmPRSS2 (western blot): effect of reducing trypsin
[3]; orally vaccinated mice
  body weight after infection with C. rodentium: body weight loss was reduced
[3]; western blot
  C. rodentium-specific IgA in cecal luminal contents: significantly high amount of C. rodentium-specific IgA
  total IgA in cecal luminal contents: significantly high total IgA amount
